Data set [1] addresses T1, Na^+ /H^+ exchanger of rabbit erythrocytes (Oryctolagus cuniculus, UniProt P23791).
T1 construct: endogenous in cells; host or cells: erythrocytes in blood from the ear arteries of cholesterol-fed White New Zealand rabbits
In words: Inhibition of the Na^+ /H^+ exchanger of rabbit erythrocytes (amiloride-sensitive Na^+ influx, flame photometry). Format: cell-based, White New Zealand rabbits. The following applies: pH 7.4, 37° C. From the text: Inhibitors of the Na^+ /H^+ exchanger of rabbit erythrocytes:
White New Zealand rabbits (Ivanovas) received a standard diet containing 2% cholesterol for six weeks in order to activate Na^+ /H^+ exchange and thus to be able to determine the Na^+ influx into the erythrocytes via Na^+ /H^+ exchange by flame photometry. The blood was taken from the ear arteries and rendered incoagulable by 25 IU/ml of potassium heparin. A part of each sample was used for the duplicate determination of the hematocrit by centrifugation. Aliquots of 100 μl in each case were used to measure the Na^+ starting content of the erythrocytes.
In order to determine the amiloride-sensitive sodium influx, 100 μl of each blood sample were incubated at pH 7.4 and 37° C. in 5 ml in each case of a hyperosmolar salt/sucrose medium (mmol/1:140 NaCl, 3 KCl, 150 sucrose, 0.1 ouabain, 20 tris(hydroxymethyl)aminomethane). The erythrocytes were then washed three times with ice-cold MgCl2 /ouabain solution (mmol/1:112 MgCl2, 0.1 ouabain) and hemolized in 2.0 ml of distilled water. The intracellular sodium content was determined by flame photometry.
The Na^+ net influx was calculated from the difference between sodium starting values and the sodium content of the erythrocytes after incubation. The amiloride-inhibitable sodium influx resulted from the difference between the sodium content of the erythrocytes after incubation with and without 3×10^-4 mol/l amiloride. The process was also carried out in this manner in the case of the compounds according to the invention.

The subject of data set [2] is artificially induced ventricular fibrillation. The note with it: rat hearts, isolated; cited from earlier work.
The test system of data set [3] is cardiac arrhythmias. The following applies: in vivo; cited from earlier work.

Molecules are shown by their SMILES. Where a name gives a salt, the structure may show the parent alone. A value given as a limit tells only on which side of the number the result lay.

T1 sequence (P23791 whole entry): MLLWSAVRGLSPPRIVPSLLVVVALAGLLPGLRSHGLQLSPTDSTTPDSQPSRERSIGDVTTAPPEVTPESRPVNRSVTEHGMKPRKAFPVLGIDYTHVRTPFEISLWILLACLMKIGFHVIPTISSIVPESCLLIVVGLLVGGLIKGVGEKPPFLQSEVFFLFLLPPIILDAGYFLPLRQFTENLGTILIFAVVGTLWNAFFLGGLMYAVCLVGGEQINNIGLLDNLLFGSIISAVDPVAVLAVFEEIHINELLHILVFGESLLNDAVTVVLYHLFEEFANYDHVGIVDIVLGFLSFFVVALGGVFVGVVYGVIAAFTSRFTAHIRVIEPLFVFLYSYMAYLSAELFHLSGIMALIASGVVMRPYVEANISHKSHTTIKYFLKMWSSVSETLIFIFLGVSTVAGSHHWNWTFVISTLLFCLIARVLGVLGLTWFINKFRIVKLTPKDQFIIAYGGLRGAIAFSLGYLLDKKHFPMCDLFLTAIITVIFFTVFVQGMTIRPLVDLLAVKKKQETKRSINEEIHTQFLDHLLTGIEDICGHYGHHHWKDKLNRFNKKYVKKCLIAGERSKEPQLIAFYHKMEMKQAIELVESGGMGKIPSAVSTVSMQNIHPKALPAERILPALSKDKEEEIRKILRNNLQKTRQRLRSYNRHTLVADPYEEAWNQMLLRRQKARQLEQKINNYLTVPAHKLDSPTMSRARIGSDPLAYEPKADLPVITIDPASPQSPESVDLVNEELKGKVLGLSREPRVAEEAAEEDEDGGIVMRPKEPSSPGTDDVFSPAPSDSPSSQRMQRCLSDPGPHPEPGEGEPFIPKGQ

Usually IC50 stands for the concentration needed to halve the response being measured. In turn, `CS(=O)(=O)c1cc(C(=O)N=C(N)N)cc(C2CCCC2)c1` [Example 13, 3-Cyclopentyl-5-methylsulfonylbenzoylguanidine hydrochloride] yielded an IC50 in data set [1] of 3000 nM.
The same measure, in the same setting: the value for `CS(=O)(=O)c1cc(C(=O)N=C(N)N)ccc1-c1ccccn1` [Example 6, 3-Methylsulfonyl-4-(2'-pyridyl)benzoylguanidine hydrochloride] was greater than 1000 nM.
The same measure, in the same setting: the value for `CS(=O)(=O)c1cc(C(=O)N=C(N)N)ccc1C#Cc1ccccc1` [Example 7, 3-Methylsulfonyl-4-[(2'-phenyl)ethynyl]benzoylguanidine hydrochloride] was 200 nM.
With `CCN(c1nc(N)c(C(=O)N=C(N)N)nc1Cl)C(C)C` [ethylisopropylamiloride, Ethylisopropylamiloride], in data set [2], the “potency relative to amiloride in the ventricular fibrillation model” value is recorded as “even more potent than amiloride”.
The molecule `CS(=O)(=O)c1cc(C(=O)N=C(N)N)ccc1-c1cccc(-c2ccccc2)c1` [Example 3, 3-Methylsulfonyl-4-(3-biphenyl)benzoylguanidine hydrochloride] gave an IC50 in data set [1] greater than 1000 nM.
Regarding `CS(=O)(=O)c1cc(C(=O)N=C(N)N)ccc1-c1ccc2ccccc2c1` [Example 2, 3-Methylsulfonyl-4-(2-naphthyl)benzoylguanidine hydrochloride], the IC50 in data set [1] was found to be 500 nM.
Consider `CS(=O)(=O)c1cc(C(=O)N=C(N)N)ccc1CCc1ccccc1` [Example 9, 3-Methylsulfonyl-4-phenylethylbenzoylguanidine hydrochloride], for which the IC50 in data set [1] was found to be 900 nM.
Consider `NC(N)=NC(=O)c1nc(Cl)c(N)nc1N` [amiloride], for which the “suppression of artificially induced ventricular fibrillation” value in data set [2] was “suppressed completely”. In data set [3], the accompanying side effects entry was “hypotensive and saluretic action”; the antiarrhythmic effect result is “only slightly pronounced”.
As for `CS(=O)(=O)c1cc(C(=O)N=C(N)N)ccc1C1CCCC1` [Example 10, 4-Cyclopentyl-3-methylsulfonylbenzoylguanidine hydrochloride], it took 100 nM to reach half-maximal inhibition in data set [1] (IC50).
In the case of `CS(=O)(=O)c1cc(C(=O)N=C(N)N)ccc1C1CCCCC1` [Example 5, 4-Cyclohexyl-3-methylsulfonylbenzoylguanidine hydrochloride], the IC50 in data set [1] amounted to 1700 nM.
